According to US9770421B2, “Uses for idebenone and related benzoquinones in metabolic disorders and other PPAR α/γ related diseases and conditions” (INDANIO BIOSCIENCE INC., priority 2013, dated 2017):
“Also recorded” adds a separate entry of the source.

Legend:
[1] = target: T1, PPARα (Homo sapiens, UniProt Q07869); assay: PPARα ligand trap zebrafish GFP reporter assay; type: in vivo; design: pLT PPARα (aa 178-468) and pLT PPAR γ (aa 188-477) lines; expressed in transfected cells; host or cells: transgenic zebrafish embryos (ligand-trap line); details: transgenic embryos, 48 hpf
T1 sequence (Q07869 178-468): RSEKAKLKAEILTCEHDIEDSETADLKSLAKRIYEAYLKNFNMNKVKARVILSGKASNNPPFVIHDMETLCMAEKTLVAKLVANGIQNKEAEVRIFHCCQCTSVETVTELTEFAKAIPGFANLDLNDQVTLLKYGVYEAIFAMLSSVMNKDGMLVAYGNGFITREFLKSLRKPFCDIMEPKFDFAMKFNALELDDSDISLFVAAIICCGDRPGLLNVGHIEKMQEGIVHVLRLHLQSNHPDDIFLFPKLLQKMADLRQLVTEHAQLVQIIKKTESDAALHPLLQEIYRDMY
Protocol: Zebrafish were maintained at 28.5° C. on a 14/10 hour light/dark cycle and staged according to hours (h) or days (d) postfertilization. To generate pLT PPARα (aa 178-468) and pLT PPAR γ (aa 188-477) lines, plasmids were pre-digested with I-SceI (0.8 μg DNA, 1 μl I-SceI (New England Biolabs) 2 μl 10×I-SceI buffer, 1 μl BSA) for 20 min at 37° C. Digested DNA was adjusted with 0.1% phenol red. 4.6 nl of DNA solution was injected into the blastomeres of early one-cell stage embryos.
F0 fish were crossed with WT fish to identify germ-line transformed animals, as determined by agonist treatments and GFP expression. F1 progeny showing strong and consistent GFP responses were selected for F2 homozygote production. To avoid reporter GFP silencing of stable transgenic LT lines, homozygous fish showing strong and consistent GFP responses were selected for continued propagation of next generations.
PPARγ ligand trap zebrafish screens were performed under optimized conditions in 96-well format using the ImageXpress Velos Laser Scanning Cytometer. 1 or 2 dpf embryos were heat induced (28→37° C.) for 30 minutes, de-chorionated and then arrayed in 96-well plates (5 per well). […] Embryos were incubated at 28° C. for 14 h, anesthetized with Tricaine (Sigma, Cat. # A-5040) and then analyzed for GFP fluorescence using the ImageXpress Velos Laser Scanning Cytometer.

[2] = target: T2, affinity-tagged PPARγ expressed in zebrafish (Homo sapiens, UniProt P37231); assay: Affinity purification of PPARγ from LT fish and LC-MRM of bound drugs; type: binding; details: 1 μM rosiglitazone or 4 μM idebenone; purification in 1M NaCl
T2 construct: pLT PPARα (aa 178-468) and pLT PPAR γ (aa 188-477) lines; expressed in transfected cells; host or cells: transgenic zebrafish embryos (heat-induced ligand-trap line)
T2 sequence (P37231 188-477 isoform P37231-2): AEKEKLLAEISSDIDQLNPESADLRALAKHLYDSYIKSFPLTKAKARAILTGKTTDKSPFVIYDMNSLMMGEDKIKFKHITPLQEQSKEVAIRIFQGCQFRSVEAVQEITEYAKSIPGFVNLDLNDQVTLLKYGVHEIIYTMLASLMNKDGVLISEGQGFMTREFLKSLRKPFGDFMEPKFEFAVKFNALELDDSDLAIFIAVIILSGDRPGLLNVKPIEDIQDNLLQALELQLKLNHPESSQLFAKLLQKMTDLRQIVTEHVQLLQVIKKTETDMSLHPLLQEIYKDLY

[3] = system: C57Bl/6 db/db mice; assay: db/db mouse study (NAFLD features); type: in vivo; details: for Decrease in liver weight in comparison to vehicle treated mice: 3 weeks
Protocol: Db/db study: Forty male C57Bl/6 db/db mice (called B6.BKS(D)-Lepr db/J) were ordered from Jackson Laboratories (#000697) at 7 weeks of age. Mice were housed individually with free access to food (2016 Teklad Global 16% Protein Rodent Diet) and water on a 14 hour light/dark cycle (6 a.m. to 8 p.m. light). […] Food was exchanged on a daily bases. Harlan corn cob bedding was provided and was changed every week or as needed. Following a 1 week acclimation, 32 mice were chosen based on desired body weight range. Remaining mice were euthanized. Mice were randomized by body weight into four treatment groups (n=8) by body weight. Dosing occurred for 21 days. Mice were euthanized by CO2 euthanasia and livers were fixed in neutral buffered formalin (NBF) for 24 h, followed by a one day fixation in 30% Sucrose and 10% Sucrose. Oil O Red staining was performed through the Pathology Research Program at the University Health Network in Toronto [46]. [table] 100 mg of db/db livers were homogenized in RIPA buffer and protein concentration was quantified using a BCA protein assay kit (Cell signalling #7780) followed by measurement of ‘Thiobarbituric Acid Reactive Substances’ (TBARS) using a TBARS assay kit (Cayman Chemicals #10009055). Total RNA was extracted from 100 mg of db/db livers using RNA STAT-60 (Tel-Test, Inc.), treated with DNase I (RNase-free, Roche), and reverse transcribed into cDNA with random hexamers using the High Capacity Reverse transcription system (Applied Biosystems, ABI). Primers used are shown below and were validated as previously described. Real-time QPCR reactions were performed on an ABI 7900 in 384-well plates containing 12.5 ng cDNA, 150 nM of each primer, and 5 μl 2×SYBR Green PCR Master Mix (ABI) in a 10 μl total volume. Relative mRNA levels were calculated using the comparative Ct method normalized to cyclophilin mRNA.

[4] = target: T3, PPARδ/β (Homo sapiens, UniProt Q03181); assay: PPARδ/β ligand trap transgenic zebrafish line; details: in vivo
T3 construct: expressed in transfected cells; host or cells: transgenic zebrafish embryos (ligand-trap line)
T3 sequence (Q03181 211-439 limits assumed): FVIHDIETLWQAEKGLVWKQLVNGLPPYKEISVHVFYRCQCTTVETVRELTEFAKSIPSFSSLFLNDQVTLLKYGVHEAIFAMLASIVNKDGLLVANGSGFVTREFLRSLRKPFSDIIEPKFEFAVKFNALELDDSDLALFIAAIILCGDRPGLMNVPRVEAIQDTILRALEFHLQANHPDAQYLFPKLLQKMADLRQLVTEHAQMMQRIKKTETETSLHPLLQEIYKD
Protocol: To test for specificity, idebenone and CoQ10 were also tested on PPARα, and PPARδ/β receptors in vivo and in vitro. […] The same relative responses were obtained with HEK 293 cells grown in culture and transfected with PPAR expression vectors and luciferase reporters (FIG. 5).

Response of PPARδ/β transgenic line [4]: no response
Structure (SMILES): COC1=C(OC)C(=O)C(CCCCCCCCCCO)=C(C)C1=O [Idebenone, 2-(10-hydroxydecyl)-5,6-dimethoxy-3-methyl-2,5-cyclohexadiene-1,4-dione]
GFP response of PPARα LT line [1]: robust response; also recorded: dual agonists for PPARα and PPARγ | Co-purification with PPARγ from LT fish (LC-MRM) [2]: yielded idebenone in the affinity purification eluate; also recorded: co-purify with affinity-tagged PPARγ | Histological NAFLD features of liver ([3]; 3 weeks in food): reversed these histological NAFLD | Decrease in liver weight in comparison to vehicle treated mice ([3]; 900 mpk in food): 3% | Decrease in liver weight in comparison to vehicle treated mice ([3]; 1800 mpk in food): 6.5% | Liver ADFP mRNA expression (QPCR) ([3]; 21 days): down regulated | Liver PLIN4 mRNA expression (QPCR) ([3]; 21 days): down regulated | Liver lipid content (Oil Red O staining) ([3]; 21 days, 900/1800 mpk idebenone, 10 mpk rosiglitazone): significant dose-dependent decrease in fat; also recorded: significant dose dependent decrease in fat | Liver lipid peroxides (TBARS) ([3]; liver homogenates, 21 days): reduced
